These results are taken from paper PMC12645137 (Current Neuropharmacology, 2025).

Assay [1] deals with T1, BChE (source equine serum) (Equus caballus, UniProt P81908).
T1 construct: from tissue; host or cells: equine serum
In words: biochemical. The following applies: for inhibition at 62.5 µg/mL / inhibition at 125 µg/mL / inhibition at 250 µg/mL / inhibition at 500 µg/mL / inhibition at 1000 µg/mL: read-out: % BChE Inhibition. Here is the method: (§1) The cholinesterase inhibitory potentials of our synthesized compounds were evaluated against cholinesterase enzymes (AChE/BChE). The AChE (source Electric eel) and BChE (source equine serum) were used in the study following previously published Ellman's assay. The assay basic principle involves the hydrolytic breakdown of acetylthiocholine iodide (ATChI) by AChE and butyryl thiocholine iodide (BTChI) by BChE enzymes, leading to the formation of an intermediate compound which is subsequently complexed with 5,5-dithio bis nitrobenzoic acid (DTNB) to form a UV-detectable compound. The yellowish color product indicates the hydrolysis of ATChI and BTChI substrates by respective enzymes, which were analyzed at 412 nm using a UV-visible spectrophotometer. […] A test sample of 1000 µl was taken in a cuvette, to which enzyme solution (50 µl) and DTNB reagent of 50 µL were added. The AChE (0.03 U/ml) and BChE (0.01 U/ml) solutions were prepared in 0.1 M phosphate buffer having pH 8.0. The ATChI and BTChI substrate solutions (0.0005 M) and 0.0002273 M solution of DTNB were prepared using distilled water and stored at 8°C before further use. For 15 minutes, the solution mixture was incubated at 30 °C, after which a solution of the substrate (50 µl) was added and then subjected to spectroscopic analysis. Using a double beam spectrophotometer, the sample absorbance was measured for 4 minutes at 412 nm beside the time of reaction. […] All values were taken in triplicate under the same conditions.
(§2) Enzymatic activity percentage=V/Vmaxx100
(§3) V is the reaction rate in the inhibitor's presence, whereas Vmax is the reaction rate in the absence of the inhibitor.

For assay [2], the target named is T2, AChE (source Electric eel) (Electrophorus electricus, UniProt O42275).
T2 construct: from tissue
T2 sequence (O42275 24-633): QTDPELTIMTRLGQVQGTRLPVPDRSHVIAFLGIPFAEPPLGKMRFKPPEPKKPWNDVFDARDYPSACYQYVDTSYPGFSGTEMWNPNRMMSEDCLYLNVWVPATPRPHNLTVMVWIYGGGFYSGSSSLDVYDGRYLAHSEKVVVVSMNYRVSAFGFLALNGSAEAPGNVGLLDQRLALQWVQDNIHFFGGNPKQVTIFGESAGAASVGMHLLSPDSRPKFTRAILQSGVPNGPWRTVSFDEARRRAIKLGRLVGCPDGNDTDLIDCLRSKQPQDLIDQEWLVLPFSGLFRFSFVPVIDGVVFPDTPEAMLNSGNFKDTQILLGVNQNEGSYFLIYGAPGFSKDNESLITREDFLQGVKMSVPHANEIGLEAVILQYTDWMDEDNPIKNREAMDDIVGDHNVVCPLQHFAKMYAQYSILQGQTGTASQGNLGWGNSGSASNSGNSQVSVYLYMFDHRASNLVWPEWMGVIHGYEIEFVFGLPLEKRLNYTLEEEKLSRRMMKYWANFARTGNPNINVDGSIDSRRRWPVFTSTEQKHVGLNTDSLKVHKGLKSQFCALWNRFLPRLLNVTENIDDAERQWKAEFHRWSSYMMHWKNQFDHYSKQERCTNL
In words: biochemical. The following applies: for inhibition at 62.5 µg/mL / inhibition at 125 µg/mL / inhibition at 250 µg/mL / inhibition at 500 µg/mL / inhibition at 1000 µg/mL: read-out: % AChE Inhibition. Here is the method: as §1, §2, §3

Assay [3] can be described thus: DPPH antioxidant assay. It counts as physicochemical. The following applies: for % Inhibition (DPPH free radicals): mean ± SEM. Here is the method: To evaluate the in-vitro antioxidant potential of the synthesized derivatives, a previously reported 1,1 Diphenyl, 2 Picrylhydrazyl (DPPH) assay was utilized. The DPPH solution was prepared by dissolving twenty-four mg DPPH in methanol (100 ml). Test sample solutions in various concentrations (62.50 to 1000 μg/mL) were also prepared. From each dilution, 1 ml sample solution was taken to which 1 ml solution of DPPH was added. The solution mixture was incubated at 23°C for 30 minutes in the dark and then subjected to a UV-visible spectrophotometer to note the absorbance at 517 nm. The absorbance values of all samples were taken in triplicate. Ascorbic acid served as positive control, while negative control only contained a solution of DPPH having no test samples. The % free radical scavenging potential of our compounds was determined by the given formula.
% free radical scavenging activity = [drawing 2] x100
X is the control absorbance, whereas X1 is the absorbance of the test sample.
Background: Loss of DPPH colour is used to gauge radical scavenging.

T1 sequence (P81908 whole entry): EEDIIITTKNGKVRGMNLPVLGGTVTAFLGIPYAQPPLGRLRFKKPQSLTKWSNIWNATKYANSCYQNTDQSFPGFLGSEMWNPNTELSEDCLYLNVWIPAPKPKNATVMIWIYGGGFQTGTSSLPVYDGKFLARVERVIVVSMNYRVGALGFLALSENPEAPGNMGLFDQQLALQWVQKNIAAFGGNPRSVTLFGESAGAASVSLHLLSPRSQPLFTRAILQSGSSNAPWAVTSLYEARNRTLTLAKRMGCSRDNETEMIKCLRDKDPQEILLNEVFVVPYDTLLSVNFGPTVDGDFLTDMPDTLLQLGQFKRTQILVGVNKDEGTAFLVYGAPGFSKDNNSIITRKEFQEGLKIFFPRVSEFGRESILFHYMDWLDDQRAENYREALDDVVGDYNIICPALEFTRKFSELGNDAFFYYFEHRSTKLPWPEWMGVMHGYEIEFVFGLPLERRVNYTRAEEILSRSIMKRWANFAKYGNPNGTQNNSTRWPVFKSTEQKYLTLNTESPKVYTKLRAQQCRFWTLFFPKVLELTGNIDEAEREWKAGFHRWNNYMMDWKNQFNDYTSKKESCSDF

Usually IC50 stands for the concentration that inhibits the measured activity by half. Low readings indicate greater potency, high ones weaker potency. What is called inhibition is how much of the control response was suppressed. In the case of `COc1ccc(C/N=C(/C)[C@H]2CC[C@H]3[C@@H]4CCC5=CC(=O)CC[C@]5(C)[C@H]4CC[C@]23C)cc1OC` [AN3, (8S,9S,10R,13S,14S,17S)-17-((Z)-1-((3,4-dimethoxybenzyl)imino)ethyl)-10,13-dimethyl-1,2,6,7,8,9,10,11,12,13,14,15,16,17-tetradecahydro-3H-cyclo-penta[a]phenanthren-3-one], the IC50 in assay [1] stood at 112 µM; in assay [2], 133 µM; in assay [3], 86.4 µM. In addition, the inhibition at 62.5 µg/mL is 55.5% in assay [1] and 50.7% in assay [2]. Besides, the inhibition at 125 µg/mL in assay [1] was 59.9%; in assay [2], 62.9%. The figures for the inhibition at 250 µg/mL in assay [1] and in assay [2] were 64.3% and 64.6%, respectively. Further, the values for the inhibition at 500 µg/mL in assay [1] and in assay [2] were 81.8% and 78.2%, respectively. In addition, the inhibition at 1000 µg/mL is 87.9 ± 1.96% in assay [1] and 82.8 ± 2.02% in assay [2]. For the same molecule, the “% Inhibition (DPPH free radicals)” value in assay [3] (62.5 µg/ml) is given as 54.18 ± 2.16%; in assay [3] (125 µg/ml) it was 56.86 ± 2.33%; in assay [3] (250 µg/ml), 61.18 ± 2.23%; in assay [3] (500 µg/ml) it was 66.44 ± 2.58%; in assay [3] (1000 µg/ml), 72.32 ± 1.37%.

As to `C/C(=N/Cc1ccc(C)cc1)[C@H]1CC[C@H]2[C@@H]3CCC4=CC(=O)CC[C@]4(C)[C@H]3CC[C@]12C` [AN2, (8S,9S,10R,13S,14S)-17-((Z)-1-((4-methylbenzyl)imino)ethyl)-10,13-dimethyl-1,2,6,7,8,9,10,11,12,13,14,15,16,17-tetradecahydro-3H-cyc-lopenta[a]phenanthren-3-one], the IC50 amounted to 138 µM in assay [1], 173 µM in assay [2] and 62.5 µM in assay [3]. Also, the results for the inhibition at 62.5 µg/mL in assay [1] and in assay [2] were 50.8% and 48.3%, respectively. The inhibition at 125 µg/mL was 52.9% in assay [1] and 57.4% in assay [2]. In addition, the inhibition at 250 µg/mL in assay [1] is 74.1%; in assay [2] it was 64.3%. Besides, the inhibition at 500 µg/mL in assay [1] was 72%; in assay [2], 75.7 ± 1.26%. The inhibition at 1000 µg/mL is 77.5 ± 1.29% in assay [1] and 75.7 ± 2.82% in assay [2]. Moreover, the “% Inhibition (DPPH free radicals)” value is 55.65 ± 2.44% in assay [3] (62.5 µg/ml); 57.44 ± 2.47% in assay [3] (125 µg/ml); 65.77 ± 3.32% in assay [3] (250 µg/ml); 66.26 ± 1.60% in assay [3] (500 µg/ml); 71.47 ± 1.83% in assay [3] (1000 µg/ml).

Regarding `C/C(=N/Cc1ccc(Cl)cc1)[C@H]1CC[C@H]2[C@@H]3CCC4=CC(=O)CC[C@]4(C)[C@H]3CC[C@]12C` [AN4, (8S,9S,10R,13S,14S,17S)-17-((Z)-1-((4-chlorobenzyl)imino)ethyl)-10,13-dimethyl-1,2,6,7,8,9,10,11,12,13,14,15,16,17-tetradecahydro-3H-cyclopenta [a]phenanthren-3-one], the IC50 worked out at 149 µM in assay [1], 213 µM in assay [2] and 188 µM in assay [3]. In addition, the figures for the inhibition at 62.5 µg/mL in assay [1] and in assay [2] were 49.5% and 47%, respectively. Also, the inhibition at 125 µg/mL is 56.9% in assay [1] and 52.7% in assay [2]. The values for the inhibition at 250 µg/mL in assay [1] and in assay [2] were 63.1% and 60.3%, respectively. Also, the inhibition at 500 µg/mL in assay [1] was 64.7%; in assay [2] it was 67.7%. Moreover, the inhibition at 1000 µg/mL in assay [1] is 76.3 ± 1.56%; in assay [2] it was 70 ± 2.26%. In addition, the “% Inhibition (DPPH free radicals)” value in assay [3] (62.5 µg/ml) is on record as 46.88 ± 0.65%; in assay [3] (125 µg/ml), 55.52 ± 3.43%; in assay [3] (250 µg/ml), 60.69 ± 1.92%; in assay [3] (500 µg/ml) it was 66.80 ± 3.47%; in assay [3] (1000 µg/ml) it was 69.87 ± 2.81%.

For `C/C(=N/Cc1ccccc1)[C@H]1CC[C@H]2[C@@H]3CCC4=CC(=O)CC[C@]4(C)[C@H]3CC[C@]12C` [AN5, (8S,9S,10R,13S,14S)-17-((Z)-1-(benzylimino)ethyl)-10,13-dimethyl-1,2,6,7,8,9,10,11, 12,13,14,15,16,17-tetradecahydro-3H cyclopenta[a]phenan-thren-3-one], the results for the IC50 in assay [1], in assay [2] and in assay [3] were 63 µM, 156 µM and 110 µM, respectively. The inhibition at 62.5 µg/mL in assay [1] is 58.1%; in assay [2], 50.4%. The inhibition at 125 µg/mL was 65.9% in assay [1] and 59.7% in assay [2]. In addition, the inhibition at 250 µg/mL was 71.4% in assay [1] and 65.2% in assay [2]. In addition, the values for the inhibition at 500 µg/mL in assay [1] and in assay [2] were 75.8% and 77.3%, respectively. Moreover, the inhibition at 1000 µg/mL in assay [1] is 85.5 ± 2.83%; in assay [2], 83.5 ± 2.31%. Moreover, the “% Inhibition (DPPH free radicals)” value is reported as 52.18 ± 1.42% in assay [3] (62.5 µg/ml); 56.99 ± 2.50% in assay [3] (125 µg/ml); 65.46 ± 1.83% in assay [3] (250 µg/ml); 67.51 ± 2.56% in assay [3] (500 µg/ml); 73.12 ± 1.04% in assay [3] (1000 µg/ml).

Turning to `O=C1O[C@H]([C@@H](O)CO)C(O)=C1O` [Ascorbic Acid, Ascorbic acid, reference compound], the IC50 in assay [3] came to 54.1 µM. The “% Inhibition (DPPH free radicals)” value in assay [3] (62.5 µg/ml) was determined as 67.69 ± 2.18%; in assay [3] (125 µg/ml), 71.25 ± 4.29%; in assay [3] (250 µg/ml), 74.50 ± 3.04%; in assay [3] (500 µg/ml) it was 86.00 ± 0.70%; in assay [3] (1000 µg/ml), 91.17 ± 1.62%.
